Laboratory results taken from patent US20080081796A1, “TREATMENT OF MUCOSITIS” (priority 2002, published 2008).

Test system: oral mucositis induced by acute radiation
Assay: oral mucositis induced by acute radiation in an animal model (Animal Study and Animal Study II)
Format: in vivo, Golden Syrian hamsters
Conditions: for severity of oral mucositis (average oral mucositis scores, FIG. 1): topical TID 0.25 ml to left cheek pouch, 40 Gy radiation on day 0, versus water control
Source text: The objective of this study was to evaluate the effect of the nucleoside derivative, 5′-adenosine-diphosphate ribose, when administered topically, on the frequency, severity and duration of oral mucositis induced by acute radiation in an animal model.
The animals in the study ([…] Golden Syrian hamsters, Charles River Lab., ages 5-6 weeks, approximately 90 g average body weight) were randomly and prospectively divided into three groups of eight animals each. The particular test material to be applied to the animal mucosa during the study essentially defined each group. The test materials were water (Group 1 control), ADP-ribose 100 μg/ml in water (Group 2) and ADP-ribose 500 μg/ml in water (Group 3).
Mucositis was induced in the animals with a standardized acute radiation protocol. A single dose of radiation (40 Gy/dose) was administered to each animal on day 0. Irradiation targeted the left buccal pouch mucosa at a rate of 121.5 cGy/minute. The left buccal pouch was everted, fixed and isolated using a lead shield. Prior to and following radiation on day 0, each animal was dosed with their respective test materials in the manner described below. Also, immediately prior to radiation, the buccal mucosa was everted and any excess test material solution was wiped away using a clean tissue or cotton swab.
The respective test materials were then applied topically TID to the irradiated mucosa of each animal on day 1 to day 20 of the study. To accomplish this, a tuberculin syringe without a needle, containing 0.25 ml of the test material, was inserted into the base of the left cheek pouch and the test material deposited accordingly. This was done TID (first between 8-9:00 am; second between […] and 1:00 pm; third between 4-6:00 pm). Any developing mucositis was evaluated and scored on alternate days from day 6-28. Each animal was also weighed and its survival recorded on day 1 to day 28.
During the study, each animal was tested for mucositis scores, weight change and survival. For the evaluation of mucositis, the animals were anesthetized with inhalation anesthetics, and the left pouch everted. The developing mucositis was scored visually by comparison to a validated photographic scale, ranging from 0 for normal, to 5 for severe ulceration (clinical scoring). In descriptive terms, this scale is defined in the following table:
A mucositis score of 1-2 represents a mild stage of the disease. A score of 3-5 indicates moderate to severe mucositis. Following visual scoring, a photograph was taken of each animal's mucosa using a standardized technique. At the conclusion of the experiment, all film was developed and the photographs randomly numbered. At least two independent trained observers graded the photographs in blinded fashion using the above-described scale (blinded scoring). Results of the mucositis scores are graphically illustrated in FIG. 1.
The animal study described in Example 2 was then repeated with an identical protocol but with modified ADP-ribose doses. The groups in this study were treated with water (control), ADP-ribose at 100 μg/ml in water (Compound F), ADP-ribose at 45 μg/ml in water (Compound G), and ADP-ribose at 15 μg/ml in water (Compound H). […] Animals in the control group had mucositis scores ≧3 for approximately 10 days, whereas the ADP-ribose group had scores of approximately 3 for only 4 days.

In the case of “5′-adenosine-diphosphate ribose [ADP-ribose]”, the “severity of oral mucositis (average oral mucositis scores, FIG. 1)” value (Example 3, ADP-ribose at 100 μg/ml in water (Compound D group)) is reported as “decreased the severity of oral mucositis”, the “severity of oral mucositis (average oral mucositis scores, FIG. 1)” value (Example 3, ADP-ribose at 500 μg/ml (Compound E group)) is reported as “decreased the severity of oral mucositis” and the “effect on oral mucositis at 100 μg/ml compared with 500 μg/ml” value (Example 3, FIG. 1, comparison of the two ADP-ribose concentrations) is reported as “superior to that of ADP-ribose at 500 μg/ml”. For the same substance, the “healing of oral mucositis” value (Example 4, Animal Study II, FIG. 2, ADP-ribose at a 45 μg/ml dose (Compound G)) was “maximum healing of oral mucositis that was statistically significant”, the “time with mucositis scores of approximately 3” value (Example 4, Animal Study II, FIG. 2, ADP-ribose group, control group had scores ≧3 for approximately 10 days) was 4 days and the “healing of ulcers associated with mucositis (mucositis score ≧3) relative to the control” value (Example 4, Animal Study II, FIG. 2, ADP-ribose treatment groups (100, 45, 15 μg/ml in water)) was “healed faster”.
